Test results as given in patent US10051861B2, “N-arylamidine-substituted trifluoroethyl sulfide derivatives as acaricides and insecticides” (BAYER CROPSCIENCE AG, priority 2011, dated 2018).
Where two headings read alike, the source gives them in different places. Marks after values point to notes of the source that are not given here.

Columns and labels:
[1] = logP by HPLC on reversed-phase columns (C 18), EEC Directive 79/831 Annex V.A8; format: physicochemical; details: for chromatographic logP: reversed-phase C18 HPLC column; for logP(HCOOH): pH 2.7; for logP(neutral): pH 7.8
Method: Calibration is carried out using unbranched alkan-2-ones (having from 3 to 16 carbon atoms) with known log P values (the log P values are determined by the retention times using linear interpolation between two successive alkanones).

Boophilus microplus = Boophilus microplus test (BOOPMI injection); format: in vivo; parameters: dose or concentration left out as unconfirmed; details: after 7 days
Method: (§1) Solvent: dimethyl sulfoxide
The solution of active compound is injected into the abdomen (Boophilus microplus), and the animals are transferred into dishes and kept in a climatized room. The activity is assessed by laying of fertile eggs.
100% means that none of the ticks has laid any fertile eggs.

[2] = system: cattle ticks (Boophilus microplus); assay: Boophilus microplus injection test (BOOPMI Inj); format: in vivo; details: for pest or weed control at 0.02 mg: Rhipicephalus microplus, 168 h, read-out: efficacy (laying of fertile eggs)
Method: as §1
1 μl of the active compound solution is injected into the abdomen of 5 engorged adult female cattle ticks (Boophilus microplus). The animals are transferred into dishes and kept in a climate-controlled room.
(§2) The activity is assessed after 7 days by laying of fertile eggs. Eggs whose fertility is not visible from the outside are stored in a climate-controlled cabinet until the larvae hatch after about 42 days. An efficacy of 100% means that none of the ticks has laid any fertile eggs; 0% means that all eggs are fertile.

[3] = system: greenhouse red spider mite (Tetranychus urticae); assay: Tetranychus urticae spray test, OP-resistant (TETRUR), bean leaf disks; format: in vivo; details: for pest or weed control at 500 g/ha: Tetranychus urticae, foliar, 144 h, read-out: efficacy (spider mites killed)
Method: (§3) After 6 days, the effect in % is determined.

[4] = system: larvae of the mustard beetle (Phaedon cochleariae); assay: Phaedon test (PHAECO spray treatment); details: application rate 500 g/ha, after 7 days
[5] = system: larvae of the mustard beetle (Phaedon cochleariae); assay: Phaedon cochleariae spray test (PHAECO); details: for effect (beetle larvae killed): application rate 500 g/ha, after 7 days; for pest or weed control at 500 g/ha: Phaedon cochleariae, 168 h, read-out: effect (beetle larvae killed)
[6] = system: greenhouse red spider mite (Tetranychus urticae); assay: Tetranychus test, OP-resistant (TETRUR spray treatment); format: in vivo; details: application rate 500 g/ha, after 6 days
Method: as §3

Meloidogyne incognita = Meloidogyne incognita test (MELGIN); format: in vivo; details: application rate 20 ppm, after 14 days
Method: Solvents: 80.0 parts by weight of acetone
Containers are filled with sand, solution of active compound, Meloidogyne incognita egg/larvae suspension and lettuce seeds. The lettuce seeds germinate and the plants develop. On the roots, galls are formed.
After 14 days, the nematicidal efficacy in % is determined by the formation of galls. 100% means that no galls have been found; 0% means that the number of galls on the treated plants corresponds to the untreated control.

[7] = system: L1 larvae of the Australian sheep blowfly (Lucilia cuprina); assay: Lucilia cuprina test (LUCICU); format: in vivo; details: application rate 100 ppm, after 2 days
Method: as §1
About 20 L1 larvae of the Australian sheep blowfly (Lucilia cuprina) are transferred into a test vessel containing minced horsemeat and the active compound preparation of the desired concentration.
After 2 days, the kill in % is determined.

[8] = system: green peach aphid (Myzus persicae); assay: Myzus persicae spray test (MYZUPE); format: in vivo; details: after 6 days
Method: as §3

[9] = system: cattle ticks (Boophilus microplus) Parkhurst strain, SP-resistant; assay: Boophilus microplus dip test (BOOPMI Dip); format: in vivo; details: application rate 100 ppm, after 7 days
Method: Test animals: cattle ticks (Boophilus microplus) Parkhurst strain, SP-resistant
as §1
10 mg of active compound are dissolved in 0.5 ml of dimethyl sulfoxide. To prepare a suitable formulation, the active compound solution is diluted with water to the concentration desired in each case.
This active compound preparation is pipetted into tubes. 8-10 adult engorged female cattle ticks (Boophilus microplus) are transferred into a further tube with holes. The tube is immersed into the active compound formulation, and all ticks are completely wetted. After the liquid has run out, the ticks are transferred on filter disks into plastic dishes and stored in a climate-controlled room.
as §2

[10] = system: greenhouse red spider mite (Tetranychus urticae); assay: Tetranychus urticae spray test, OP-resistant (TETRUR), bean plants; format: in vivo; details: after 7 days
Method: Solvents: 7 parts by weight of dimethylformamide
Emulsifier: 2 part by weight of alkylaryl polyglycol ether
If the addition of ammonium salts or/and penetrants is required, these are in each case added in a concentration of 1000 ppm to the solution of the preparation.
Bean plants (Phaseolus vulgaris) which are heavily infested by all stages of the greenhouse red spider mite (Tetranychus urticae) are treated by spraying with the active compound preparation of the desired concentration.

[11] = pH 2.7, [a] LC-MS, acidic range, pH 2.7, 0.1% aqueous formic acid/acetonitrile, read-out: logP(HCOOH)
[12] = pH 7.8, [b] LC-MS, neutral range, pH 7.8, 0.001 molar aqueous ammonium bicarbonate/acetonitrile, read-out: logP(neutral)
[13] = application rate 20 μg/animal, injection, after 7 days
[14] = application rate 500 g/ha, after 6 days

logP(HCOOH) [1]	logP(neutral) [1]	Structure (SMILES)	pest or weed control at 500 g/ha [3, 14] [%]	efficacy (spider mites killed) [3, 14] [%]	efficacy (beetle larvae killed) [4] [%]	effect (beetle larvae killed) [5] [%]	other results
		Cc1cc(F)c(/N=C(/N(C)C)C(F)(F)F)cc1SCC(F)(F)F [Ia-01, 2,2,2-Trifluoro-N′-{2-fluoro-4-methyl-5-[(2,2,2-trifluoroethyl)sulfanyl]phenyl}-N,N-dimethylethanimidamide]	100				chromatographic logP [1, 11]: 4.48; chromatographic logP [1, 12]: 4.5; efficacy (laying of fertile eggs) (Boophilus microplus): 100%; pest or weed control at 0.02 mg [2, 13]: 100%
3.68^[a]		Cc1cc(F)c(N=C(NCc2ccccn2)C(F)(F)F)cc1SCC(F)(F)F [Ia-04]		100	100	100	efficacy (laying of fertile eggs) (Boophilus microplus): 80%; efficacy (laying of fertile eggs) [2, 13]: 80%
4.51	4.52	Cc1cc(F)c(N=C(NC(C)C)C(F)(F)F)cc1SCC(F)(F)F [Ia-05]		100	100	100	efficacy (spider mites killed) [6]: 100%
3.36	3.4	Cc1cc(C)c(SCC(F)(F)F)cc1N=C(N)C(F)(F)F [Ia-07]		100			efficacy (spider mites killed) [6]: 100%; nematicidal efficacy (formation of galls) (Meloidogyne incognita): 90%
3.7	3.71	CNC(=Nc1cc(SCC(F)(F)F)c(C)cc1F)C(F)(F)F [Ia-13]		100	100	100	efficacy (spider mites killed) [6]: 100%; efficacy (laying of fertile eggs) [2, 13]: 100%; efficacy (kill of larvae) [7]: 90%
4.2^[a]; 4.2^[b]	4.2^[a]; 4.2^[b]	CNC(=Nc1cc(SCC(F)(F)F)c(Cl)cc1Cl)C(F)(F)F [Ia-15]		100	100	100	efficacy (spider mites killed) [6]: 100%
4.12^[a]; 4.12^[b]	4.12^[a]; 4.12^[b]	CCNC(=Nc1cc(SCC(F)(F)F)c(C)cc1F)C(F)(F)F [Ia-18]		100	100	100	efficacy (spider mites killed) [6]: 100%
		Cc1cc(F)c(N=C(N)C(F)(F)C(F)(F)C(F)(F)C(F)(F)C(F)(F)C(F)F)cc1SCC(F)(F)F [Ia-22]		100			efficacy (laying of fertile eggs) (Boophilus microplus): 100%; efficacy (laying of fertile eggs) [2, 13]: 100%
		Cc1cc(C)c(SCC(F)(F)F)cc1/N=C(\N)C1(Cl)CC1 [Ia-34]	100				pest or weed control at 0.02 mg [2, 13]: 100%; effect (aphids killed) ([8]; application rate 500 g/ha): 90%
		Cc1cc(F)c(/N=C(/N)c2ccc(F)cc2)cc1SCC(F)(F)F [Ia-116]	100				pest or weed control at 0.02 mg [2, 13]: 100%; effect (aphids killed) ([8]; application rate 500 g/ha): 90%
		Cc1cc(F)c(/N=C2\CCCN2CC(F)(F)F)cc1SCC(F)(F)F [Ia-189, 2-fluoro-4-methyl-N-[1-(2,2,2-trifluoroethyl)pyrrolidin-2-ylidene]-5-[(2,2,2-trifluoroethyl)sulfanyl]aniline]					chromatographic logP [1, 11]: 2.32; chromatographic logP [1, 12]: 4.37; efficacy (laying of fertile eggs) [9]: 100%; pest or weed control at 0.02 mg [2]: 100%; pest or weed control at 500 g/ha [3]: 100%
		Cc1cc(F)c(/N=C(\NC(C)C(F)(F)F)C2CC2)cc1SCC(F)(F)F (centres unmarked) [Ia-206]	100				pest or weed control at 0.02 mg [2, 13]: 100%; effect (aphids killed) ([8]; application rate 500 g/ha): 100%
		Cc1cc(F)c(/N=C(\NCC2CCCC(C(F)(F)F)C2)C2CC2)cc1SCC(F)(F)F (centres unmarked) [Ia-228]	90				effect (aphids killed) ([8]; application rate 500 g/ha): 100%
		Cc1cc(F)c(/N=C(/N(C)C)C(F)(F)F)cc1[S+]([O-])CC(F)(F)F (centres unmarked) [Ib-01, 2,2,2-Trifluoro-N′-{2-fluoro-4-methyl-5-[(2,2,2-trifluoroethyl)sulfinyl]phenyl}-N,N-dimethylethanimidamide]	90				chromatographic logP [1, 11]: 3.15; efficacy (laying of fertile eggs) (Boophilus microplus): 100%; pest or weed control at 0.02 mg [2, 13]: 100%
		CCNC(=Nc1cc([S+]([O-])CC(F)(F)F)c(C)cc1F)C(F)(F)F (centres unmarked) [Ib-02]		100	100	100	efficacy (spider mites killed) [6]: 100%; nematicidal efficacy (formation of galls) (Meloidogyne incognita): 100%; efficacy (laying of fertile eggs) [2, 13]: 100%; efficacy (kill of larvae) [7]: 80%
2.52	2.49	CN/C(=N/c1ccc(C(F)(F)F)c([S+]([O-])CC(F)(F)F)c1)C(F)(F)F (centres unmarked) [Ib-10]		100	100	100	efficacy (laying of fertile eggs) (Boophilus microplus): 100%; efficacy (laying of fertile eggs) [2, 13]: 100%
2.05	2.02	N/C(=N/c1cc([S+]([O-])CC(F)(F)F)c(Cl)cc1Cl)C(F)(F)F (centres unmarked) [Ib-14]		100	100	100	efficacy (laying of fertile eggs) (Boophilus microplus): 100%; efficacy (laying of fertile eggs) [2, 13]: 100%
2.2	2.19	N/C(=N/c1ccc(C(F)(F)F)c([S+]([O-])CC(F)(F)F)c1)C(F)(F)F (centres unmarked) [Ib-16]		100	100	100	efficacy (laying of fertile eggs) (Boophilus microplus): 100%; efficacy (laying of fertile eggs) [2, 13]: 100%
		Cc1cc(F)c(/N=C2\CCCN2CC(F)F)cc1[S+]([O-])CC(F)(F)F (centres unmarked) [Ib-33]	100				efficacy (laying of fertile eggs) [9]: 100%; pest or weed control at 0.02 mg [2, 13]: 100%
		Cc1cc(F)c(/N=C(\N)C(F)(F)C(F)(F)F)cc1[S+]([O-])CC(F)(F)F (centres unmarked) [Ib-42]	100				effect (aphids killed) ([8]; application rate 100 g/ha): 80%
		N/C(=N/c1cc([S@@+]([O-])CC(F)(F)F)c(Cl)cc1Cl)C(F)(F)F [Ib-44]					pest or weed control at 0.02 mg [2, 13]: 90%; effect (aphids killed) ([8]; application rate 500 g/ha): 100%; efficacy (spider mites killed) ([10]; application rate 100 ppm): 90%; pest or weed control at 500 g/ha [5]: 100%
		Cc1cc(F)c(/N=C2\CCCN2CC(F)(F)F)cc1[S+]([O-])CC(F)(F)F (centres unmarked) [Ib-115, 2-Fluoro-4-methyl-N-[1-(2,2,2-trifluoroethyl)pyrrolidin-2-ylidene]-5-[(2,2,2-trifluoroethyl)sulfinyl]aniline]					efficacy (laying of fertile eggs) [9]: 100%; pest or weed control at 0.02 mg [2]: 100%; pest or weed control at 500 g/ha [3]: 100%; pest or weed control at 500 g/ha [5]: 100%
		CN(C)/C(=N\c1cc([S+]([O-])CC(F)(F)F)c(Cl)cc1Cl)c1cccnc1 (centres unmarked) [Ib-123]	100				effect (aphids killed) ([8]; application rate 500 g/ha): 90%
		Cc1cc(C)c([S+]([O-])CC(F)(F)F)cc1/N=C1\SCC(=O)N1C (centres unmarked) [Ib-159]					efficacy (spider mites killed) ([10]; application rate 20 ppm): 80%
		Cc1cc(F)c(/N=C2\SCC(=O)N2CC(F)(F)F)cc1[S@+]([O-])CC(F)(F)F [Ib-168]					efficacy (spider mites killed) ([10]; application rate 20 ppm): 100%
